This passage reports Ki, IC50 and EC50 results from ChEMBL document CHEMBL1268913, “Carbocycles related to oseltamivir as influenza virus group-1-specific neuraminidase inhibitors. Binding to N1 enzymes in the context of virus-like particles” (J Med Chem, 2010).

The target in the first assay is Neuraminidase (Influenza A virus, UniProt B4URF0). In words: Inhibition of influenza A nuraminidase N1.
Chain of Neuraminidase (B4URF0 whole entry): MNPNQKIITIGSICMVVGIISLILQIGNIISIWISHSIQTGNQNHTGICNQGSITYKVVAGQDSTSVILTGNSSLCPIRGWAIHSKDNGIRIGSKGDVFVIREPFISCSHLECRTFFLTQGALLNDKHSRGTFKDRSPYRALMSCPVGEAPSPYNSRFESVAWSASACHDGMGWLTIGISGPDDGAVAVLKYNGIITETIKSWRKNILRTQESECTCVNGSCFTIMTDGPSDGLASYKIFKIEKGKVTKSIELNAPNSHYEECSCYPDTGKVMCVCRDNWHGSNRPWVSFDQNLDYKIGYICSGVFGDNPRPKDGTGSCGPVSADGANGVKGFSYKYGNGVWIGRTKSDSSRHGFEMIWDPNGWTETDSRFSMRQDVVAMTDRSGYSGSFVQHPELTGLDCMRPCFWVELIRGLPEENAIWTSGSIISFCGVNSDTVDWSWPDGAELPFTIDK
As for `CCC(CC)O[C@@H]1CC(C(=O)O)=C[C@H](n2cc(CCc3ccccc3)nn2)[C@H]1NC(C)=O`, the affinity, expressed as Ki, was 1.2 µM. Same read-out and setting: then `CCC(CC)O[C@@H]1CC(C(=O)O)=C[C@H](n2cc(C(O)CC)nn2)[C@H]1NC(C)=O` (some centres not stated), with 0.072 µM; and `CCC(CC)O[C@@H]1CC(C(=O)O)=C[C@H](NC(=N)N)[C@H]1NC(C)=O`, with 0.00046 µM; and `CCC(CC)O[C@@H]1CC(C(=O)O)=C[C@H](n2cc(CCCO)nn2)[C@H]1NC(C)=O`, with 0.46 µM. Still for that read-out and setting: for `CCC(CC)O[C@@H]1CC(C(=O)O)=C[C@H](n2cc(C(C)(C)O)nn2)[C@H]1NC(C)=O` the value was 0.13 µM. Regarding `CCC(CC)O[C@@H]1CC(C(=O)O)=C[C@H](n2cc(C3(O)CCCCC3)nn2)[C@H]1NC(C)=O`, the IC50 (in general, the concentration that gives 50% inhibition) turned out to be 4.8 µM. As for `CCC(CC)O[C@@H]1CC(C(=O)O)=C[C@H](n2cc(C3(O)CCCC3)nn2)[C@H]1NC(C)=O`, the midpoint of inhibition, the IC50, lay at 11 µM.

With `CCC(CC)O[C@@H]1CC(C(=O)O)=C[C@H](n2cc([C@]3(O)CC[C@H]4[C@@H]5CCc6cc(O)ccc6[C@H]5CC[C@@]43C)nn2)[C@H]1NC(C)=O`, the Ki (in general, the equilibrium dissociation constant of an inhibitor or competing ligand from its target) came out at 5.8 µM. The compound `CCC(CC)O[C@@H]1CC(C(=O)O)C=C(n2cc(CCc3ccccc3)nn2)[C@H]1NC(C)=O` (mixture of isomers) showed a Ki of 60 µM. For `CCC(CC)O[C@@H]1CC(C(=O)O)C=C(n2cc(C(C)(C)O)nn2)[C@H]1NC(C)=O` (mixture of isomers), the affinity corresponds to a Ki of 19 µM.

`CC(=O)N[C@H]1[C@H]([C@H](O)[C@H](O)CO)OC(C(=O)O)=C[C@@H]1O` [NEU5AC2EN]: the Ki came out at 5.9 µM.

The subject of a further assay is unidentified influenza virus. Kind of assay: Antiviral activity against avian influenza virus H5N1. In kind it is functional, organism-based.
As for `CCC(O)c1cn([C@H]2C=C(C(=O)O)O[C@@H]([C@H](O)[C@H](O)CO)[C@@H]2NC(C)=O)nn1` (some centres not stated), the response was half-maximal at 6.4 µM (EC50).
